Molecules are shown by their SMILES. Values after ≈ are worked out from the molar mass of the structure shown.

The values below come from patent US6399607B1, “Aminomethylene amide analogs of pyrazinamide with intracellular antimycobacterial activity against pyrazinamide-resistant mycobacteria combined with a rifamycin” (priority 1999, dated 2002).

In data set [1] the test system is M. tuberculosis. The data set is described as follows: microbe, parasite or virus in culture. Format: cell-based, Mycobacterium tuberculosis. Also noted: MIC, pansusceptible strain, pH 5.5 / MIC, Pansusceptible strain, pH 6.0 / MIC, Pansusceptible strain, pH 6.8: unit not given here. The note with it: for MIC: Mycobacterium tuberculosis, same at pH 6.0 and 6.8; for MIC, Pansusceptible strain, pH 6.0 / MIC, Pansusceptible strain, pH 6.8: 7H12 BACTEC broth, three pansusceptible strains.

For the next data set, the system named is M. avium complex. The data set is described as follows: MIC in modified 7H10 broth against M. avium complex (Tables 3, 4). In kind it is cell-based, Mycobacterium avium. Details: unit not given here.
The next data set has as its system M. kansasii. The data set is described as follows: MIC in modified 7H10 broth against M. kansasii (Tables 3, 4). In kind it is cell-based, Mycobacterium kansasii. Also noted: unit not given beside the values. The note with it: clinical isolate S.
The subject of data set [2] is M. tuberculosis. The data set is described as follows: MIC in modified 7H10 broth against M. tuberculosis (Table 3). Format: cell-based, Mycobacterium tuberculosis. Details: MIC, M. tuberculosis ATCC 35801 / MIC, M. tuberculosis ATCC 27294: unit not given here. The note with it: for MIC, M. tuberculosis ATCC 27294: ATCC 27294 (H37RV, PZA susceptible), pH 5.8; for MIC, M. tuberculosis ATCC 35801: ATCC 35801, pH 5.8.

For data set [3], the system named is M. tuberculosis. The data set is described as follows: Murine model of tuberculosis, combination with KRM-1648 (RLZ) (FIG. 2). In kind it is in vivo. The note with it: mice, in combination with KRM-1648 (Rifalazil, RLZ).
For data set [4] the following is noted: cited from earlier work.
The subject of the next data set is Mycobacterium avium. The note with it: Heifets et al, Am. Rev. Resp. Dis. 134: 1287-1288 (1986); cited from earlier work.
Data set [5] concerns Mtb organisms which have been phagocytized. The note with it: reduced efficacy after 4 to 7 days; cited from earlier work.
[6] abbreviates: Table 3, ATCC 49601 (serotype 1), modified 7H10 broth, pH 5.8.
The mark [7] stands for this setting: Table 3, strain 101 (serotype 1), modified 7H10 broth, pH 5.8.
[8] abbreviates: Table 3, modified 7H10 broth, pH 5.8.

Turning to `O=C(NCN1CCOCC1)c1cnccn1` [MZA, morphazinamide], the MIC in the data set on M. tuberculosis [1] (7H12 broth) amounted to 100 µg/mL (≈ 450 µM).

As to `CN1CCN(CNC(=O)c2cnccn2)CC1` [Compound 7, (piperazin-1-ylmethyl)-amide], the “MIC, M. avium complex ATCC 49601” value in the data set on M. avium complex (Table 4, ATCC 49601) is above 128. Also, the “MIC, M. avium complex 101” value in the data set on M. avium complex (Table 4, strain 101) is reported as above 128. Moreover, the “MIC, M. kansasii S” value in the data set with M. kansasii (Table 4) is on record as above 128.

With `CCCCN(CCCC)CNC(=O)c1cnccn1` [Compound 10], in the data set with M. avium complex (Table 4, ATCC 49601), the “MIC, M. avium complex ATCC 49601” value is reported as above 128. Moreover, the “MIC, M. avium complex 101” value in the data set with M. avium complex (Table 4, strain 101) is recorded as above 128. In addition, the “MIC, M. kansasii S” value against M. kansasii (Table 4) is above 128.

Take `NC(=O)c1cnc(Cl)cn1` [Compound 5-Chloro-PZA, 5-chloro-pyrazinamide, reference compound]: the “MIC, M. avium complex ATCC 49601” value in the data set with M. avium complex (setting [6]) was determined as 32; in the data set with M. avium complex (Table 4, ATCC 49601) it was 32. The “MIC, M. avium complex 101” value was determined as 32 in the data set on M. avium complex (setting [7]) and 32 against M. avium complex (Table 4, strain 101). Further, the “MIC, M. kansasii S” value in the data set on M. kansasii (setting [8]) and in the data set on M. kansasii (Table 4) was 32 each time. In addition, the “MIC, M. tuberculosis ATCC 27294” value in the data set with M. tuberculosis [2] was found to be 16. Besides, the “MIC, M. tuberculosis ATCC 35801” value against M. tuberculosis [2] is 16.

Consider `CCN(CC)CNC(=O)c1cnc(N(CC)CC)cn1` [Compound 17, 5-diethylamino-pyrazinoic acid diethylaminomethyl-amide], for which, in the data set on M. avium complex (setting [6]), the “MIC, M. avium complex ATCC 49601” value is above 128. Further, the “MIC, M. avium complex 101” value with M. avium complex (setting [7]) was “(>128”. Moreover, the “MIC, M. kansasii S” value in the data set on M. kansasii (setting [8]) is on record as above 128. For the same molecule, in the data set with M. tuberculosis [2], the “MIC, M. tuberculosis ATCC 27294” value is reported as 64 and the “MIC, M. tuberculosis ATCC 35801” value was determined as 16.

For `CN(CNC(=O)c1cnccn1)Cc1ccccc1` [Compound 8, [(benzyl-methyl-amino)-methyl]-amide], in the data set on M. avium complex (Table 4, ATCC 49601), the “MIC, M. avium complex ATCC 49601” value was determined as 128. In the data set on M. avium complex (Table 4, strain 101), the “MIC, M. avium complex 101” value was 128. Further, in the data set on M. kansasii (Table 4), the “MIC, M. kansasii S” value amounted to 128.

Turning to `CCCCN(CC)CNC(=O)c1cnccn1` [Compound 5], the “MIC, M. avium complex ATCC 49601” value against M. avium complex (Table 4, ATCC 49601) is above 128. Further, the “MIC, M. avium complex 101” value with M. avium complex (Table 4, strain 101) amounted to 128. The “MIC, M. kansasii S” value in the data set with M. kansasii (Table 4) is on record as above 128.

As to `NC(=O)c1cnccn1` [PZA, Pyrazinamide], the “MIC, M. avium complex ATCC 49601” value against M. avium complex (setting [6]) is reported as above 2048; against M. avium complex (Table 4, ATCC 49601), above 2048. In addition, the “MIC, M. avium complex 101” value is reported as above 2048 against M. avium complex (setting [7]) and above 2048 with M. avium complex (Table 4, strain 101). Besides, the “MIC, M. kansasii S” value in the data set on M. kansasii (setting [8]) and in the data set on M. kansasii (Table 4) was 2048 each time. Besides, the “MIC, M. tuberculosis ATCC 27294” value against M. tuberculosis [2] was 16. In the data set on M. tuberculosis [2], the “MIC, M. tuberculosis ATCC 35801” value stood at 32. Besides, the “difference in MICs under different pH conditions” value with M. tuberculosis [1] (7H12 broth, pH 6.0 v. 6.8) was “dramatic difference”. Further, the “reduction of CFUs / infection in murine model of tuberculosis” value (from here on “reduction of CFUs / infection”) in the data set with M. tuberculosis [3] was “effective in reducing infection”. The pKa in data set [4] is 0.5. Also, the “activity against Mycobacterium avium” value in the data set on Mycobacterium avium is given as “Neither is it active”. Besides, in data set [5], the activity in macrophages entry is recorded as “either weakly or clearly bacteriostatic in macrophages”.

`CCCCN(C)CNC(=O)c1cnccn1` [Compound 6]: the “MIC, M. avium complex ATCC 49601” value against M. avium complex (Table 4, ATCC 49601) was above 128. In addition, the “MIC, M. avium complex 101” value in the data set on M. avium complex (Table 4, strain 101) is reported as 128. Also, the “MIC, M. kansasii S” value against M. kansasii (Table 4) was found to be 128.

Consider `O=C(NCN1CCOCC1)c1cnccn1` [Compound 4, (morpholin-4-ylmethyl)-amide], for which the “MIC, M. avium complex ATCC 49601” value is reported as above 128 in the data set on M. avium complex (setting [6]) and above 128 against M. avium complex (Table 4, ATCC 49601). Moreover, the “MIC, M. avium complex 101” value was above 128 in the data set on M. avium complex (setting [7]) and 128 in the data set with M. avium complex (Table 4, strain 101). Further, the “MIC, M. kansasii S” value with M. kansasii (setting [8]) and against M. kansasii (Table 4) was 128 throughout. In addition, the “MIC, M. tuberculosis ATCC 27294” value with M. tuberculosis [2] turned out to be 32. In the data set on M. tuberculosis [2], the “MIC, M. tuberculosis ATCC 35801” value is recorded as 16.

`O=C(NCN1CCCC1)c1cnccn1` [Compound 1, pyrazine-2-carboxylic acid (pyrrolidin-1-ylmethyl)-amide]: the “MIC, M. avium complex ATCC 49601” value against M. avium complex (setting [6]) is recorded as above 128; with M. avium complex (Table 4, ATCC 49601) it was above 128. In addition, the “MIC, M. avium complex 101” value against M. avium complex (setting [7]) is reported as above 128; against M. avium complex (Table 4, strain 101), above 128. Moreover, the “MIC, M. kansasii S” value against M. kansasii (setting [8]) and against M. kansasii (Table 4) was 128 each time. Moreover, in the data set on M. tuberculosis [2], the “MIC, M. tuberculosis ATCC 27294” value turned out to be 16. In addition, in the data set with M. tuberculosis [2], the “MIC, M. tuberculosis ATCC 35801” value is reported as 8. Besides, in the data set with M. tuberculosis [1], the “MIC, Pansusceptible strain, pH 6.0” value came to 100. In the data set on M. tuberculosis [1], the “MIC, Pansusceptible strain, pH 6.8” value is 100. In the data set on M. tuberculosis [1] (pansusceptible strain, pH 5.5), the “MIC, pansusceptible strain, pH 5.5” value was determined as 50. Further, the “reduction of CFUs / infection” value with M. tuberculosis [3] is listed as “superior or equivalent to PZA in reducing CFUs”.

Consider `CCN(CC)CNC(=O)c1cnccn1` [Compound 2, pyrazine-2-carboxylic acid diethylaminomethyl-amide], for which, in the data set with M. avium complex (setting [6]), the “MIC, M. avium complex ATCC 49601” value was 128. The “MIC, M. avium complex 101” value against M. avium complex (setting [7]) is recorded as 128. Also, the “MIC, M. kansasii S” value in the data set on M. kansasii (setting [8]) was 128. Moreover, in the data set with M. tuberculosis [2], the “MIC, M. tuberculosis ATCC 27294” value is 16 and the “MIC, M. tuberculosis ATCC 35801” value is on record as 2. In the data set with M. tuberculosis [1], the “MIC, Pansusceptible strain, pH 6.0” value is reported as 100 and the “MIC, Pansusceptible strain, pH 6.8” value is 100. In the data set with M. tuberculosis [1] (7H12 broth), this molecule gave an MIC of 100 µg/mL (≈ 480 µM). The “reduction of CFUs / infection” value with M. tuberculosis [3] is “superior or equivalent to PZA in reducing CFUs”.

`CCCN(CCC)CNC(=O)c1cnccn1` [Compound 9, dipropylaminomethyl-amide]: the “MIC, M. avium complex ATCC 49601” value in the data set on M. avium complex (Table 4, ATCC 49601) was above 128. Besides, the “MIC, M. avium complex 101” value in the data set on M. avium complex (Table 4, strain 101) was 128. Moreover, the “MIC, M. kansasii S” value with M. kansasii (Table 4) was determined as 128.
